In US8383637B2, “2-amino-quinazoline derivatives useful as inhibitors of β-secretase (BACE)” (Jansssen Pharmaceutica N.V., priority 2004, dated 2013):
Where two headings read alike, the source gives them in different places.

What was measured:
β-secretase(BACE) [1] = target: T1, β-secretase(BACE) (Homo sapiens, UniProt P56817); assay: BACE FS1% Inhibition Assay; type: biochemical; conditions: FS1 substrate; for inhibition at 0.3 µM: 0.3 μM test compound; for inhibition at 1 µM: 1 μM test compound; for inhibition at 3 µM: 3 μM test compound
T1 construct: purchased Panvera
T1 sequence (P56817 46-501): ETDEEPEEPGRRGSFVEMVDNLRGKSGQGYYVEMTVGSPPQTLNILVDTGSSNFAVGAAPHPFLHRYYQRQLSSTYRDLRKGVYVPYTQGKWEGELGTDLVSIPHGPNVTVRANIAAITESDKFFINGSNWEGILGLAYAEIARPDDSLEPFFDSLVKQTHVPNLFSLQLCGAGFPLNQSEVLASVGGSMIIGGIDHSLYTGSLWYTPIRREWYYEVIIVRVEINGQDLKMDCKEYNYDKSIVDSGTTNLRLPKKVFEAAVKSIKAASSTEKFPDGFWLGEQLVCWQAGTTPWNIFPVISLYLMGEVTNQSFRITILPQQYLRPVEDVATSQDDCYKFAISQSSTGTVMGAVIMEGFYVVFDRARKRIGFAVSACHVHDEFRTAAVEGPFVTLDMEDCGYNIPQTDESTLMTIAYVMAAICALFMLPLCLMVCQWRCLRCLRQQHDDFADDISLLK
Method in brief: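 Human BACE (4 μg/mL working solution) preincubated 20 min at room temperature with compound, then FS1 substrate (300 μg/mL working solution) added and incubated 1 h at room temperature. Percent inhibition calculated at each compound concentration against blank and vehicle controls.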

human BACE-1 = human BACE-1 (Homo sapiens, UniProt P56817); assay: BACE Assay (CEREP); type: biochemical; conditions: recombinant enzyme, 60 min at 37° C., pH 4.5; for inhibition at 0.3 µM: test compound 0.3 μM
human BACE-1, sequence (P56817 46-501): as above
Protocol: The test compound, reference compound or water (control) were added to a buffer containing 0.09 M sodium acetate (pH 4.5) and 0.25 μg BACE-1. Compound interference with the fluorimetric detection method due to autofluorescence was then checked by measurements at the wavelengths defined to evaluate the enzyme activity. […] For control basal measurement, the substrate was omitted from the reaction mixture. […] The standard inhibitory reference compound was OM99-2, which was tested in each experiment at several concentrations to obtain an inhibition curve from which its IC50 value was calculated.

β-secretase(BACE) [2] = target: T1, β-secretase(BACE); assay: BACE Assay-2 (FS1 substrate, IC50 and Ki); type: biochemical; conditions: procedure of Example 159, FS1 substrate; read-out: Ki μM (159)

inhibition at 0.3 µM (β-secretase(BACE) [1]; read-out: % Inhibition (FS)) [%] | inhibition at 1 µM (β-secretase(BACE) [1]; read-out: % Inhibition (FS)) [%] | inhibition at 3 µM (β-secretase(BACE) [1]; read-out: % Inhibition (FS)) [%] | IC50 (human BACE-1) [nM] | inhibition at 0.3 µM (human BACE-1) [%] | inhibition at 3 µM (β-secretase(BACE) [1]; read-out: % Inhibition (FS) 3 μM) [%] | inhibition at 10 µM (β-secretase(BACE) [1]; 10 μM test compound, read-out: % Inhibition (FS) 10 μM) [%] | Ki (β-secretase(BACE) [2]) [µM] | melting point [°C] | Structure (SMILES)
110 | 114 | 118 | 160 | 97 | – | – | – | – | NC1=Nc2ccc(Oc3ccccc3)cc2CN1[C@@H](CCC(=O)N(Cc1ncc[nH]1)C1CCCCC1)C1CCCCC1 [Compound 788]
– | – | – | > 1000 | – | 56 | 79 | 0.61 | – | NC1=Nc2ccc(Oc3ccccc3)cc2CN1CCNC(=O)c1ccccc1 [Compound 154]
80 | 99 | 106 | 78 | 94 | – | – | – | – | NC1=Nc2ccc(Oc3ccccc3)cc2CN1[C@@H](CCC(=O)N(Cc1ccncc1)C1CCCCC1)C1CCCCC1 [Compound 789]
– | – | – | – | – | – | – | – | 198.1 | CN(C(=O)CCN1Cc2cc(C(=O)c3ccccc3)ccc2N=C1N)C1CCCCC1
– | – | – | 120 | 95 | – | – | – | – | CC(=O)OCC1OC(OCCN(C(=O)CCC(C2CCCCC2)N2Cc3cc(Oc4ccccc4)ccc3N=C2N)C2CCCCC2)C(OC(C)=O)C(OC(C)=O)C1OC(C)=O (stereo not shown) [Compound 797]
– | – | – | 93 | 98 | – | – | – | – | NC1=Nc2ccc(Oc3ccccc3)cc2CN1[C@@H](CCC(=O)N(Cc1nc[nH]n1)C1CCCCC1)C1CCCCC1 [Compound 790]
